# Laboratory results: article PMC3166647 (Analytical and bioanalytical chemistry, 2011)
# Biological target: T1, methionine aminopeptidase 1 (MetAP1) (Plasmodium yoelii, UniProt Q7RFT5)
# T1 sequence (Q7RFT5 1-491): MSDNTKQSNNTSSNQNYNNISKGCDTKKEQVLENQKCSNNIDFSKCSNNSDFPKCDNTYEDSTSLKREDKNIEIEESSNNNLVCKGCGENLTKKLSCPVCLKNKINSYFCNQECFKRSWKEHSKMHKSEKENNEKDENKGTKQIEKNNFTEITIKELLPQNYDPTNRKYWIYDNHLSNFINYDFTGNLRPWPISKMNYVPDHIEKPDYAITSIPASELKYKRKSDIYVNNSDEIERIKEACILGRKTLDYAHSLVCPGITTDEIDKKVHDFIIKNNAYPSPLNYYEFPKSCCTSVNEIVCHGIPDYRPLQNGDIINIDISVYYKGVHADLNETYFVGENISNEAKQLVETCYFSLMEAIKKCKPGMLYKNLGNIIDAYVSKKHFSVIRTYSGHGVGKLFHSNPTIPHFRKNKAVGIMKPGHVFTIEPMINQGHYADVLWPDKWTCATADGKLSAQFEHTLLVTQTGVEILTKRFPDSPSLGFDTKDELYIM
# Test: competition ultrafiltration with HPLC-UV
# Type: binding
# Settings: 4 °C; competes with fragments 4-9
smiles,measurement,value
CSCC[C@H](N)C(=O)O [methionine],competition ultrafiltration with HPLC-UV,methionine was able to compete against lower-affinity ligands more efficiently than higher-affinity ligands
